Measurements: patent publication US9963445B2, “Chemical compounds” (SYNGENTA PARTICIPATIONS AG, priority 2013, dated 2018)

Tests used:
Assay type in all cases: in vivo
Abutilon theophrasti [1] = assay: Pre-emergence herbicidal activity, glasshouse pot test; conditions: pre-emergence spray, rate 1000 g/ha, evaluated after 13 days, scale 0-5
Outline: (§1)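 Sown pots sprayed pre-emergence (day 1), acetone/water + 0.5% Tween 20 vehicle. Damage rated 0–5 at 13 days.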

Alopecurus myosuroides [2] = assay: as above; conditions: pre-emergence spray, rate 1000 g/ha, evaluated after 13 days, scale 0-5
Outline: as §1

Amaranthus retroflexus [3] = assay: as above; conditions: pre-emergence spray, rate 1000 g/ha, evaluated after 13 days, scale 0-5
Outline: as §1

Echinochloa crus-galli [4] = assay: as above; conditions: pre-emergence spray, rate 1000 g/ha, evaluated after 13 days, scale 0-5
Outline: as §1

Setaria faberi [5] = assay: as above; conditions: pre-emergence spray, rate 1000 g/ha, evaluated after 13 days, scale 0-5
Outline: as §1

zea mays [6] = assay: as above; conditions: pre-emergence spray, rate 1000 g/ha, evaluated after 13 days, scale 0-5
Outline: as §1

Abutilon theophrasti [7] = assay: Post-emergence herbicidal activity, glasshouse pot test; set-up: key: 0 = no damage to plant, 5 = total damage to plant; conditions: Application post-emergence, rate 1000 g/ha, evaluated after 13 days
Outline: (§2)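 Damage rated 0 (none) to 5 (total) 13 days after spraying. Plants were treated post-emergence at 8 days after sowing, using an acetone/water (50:50) formulation with 0.5% Tween 20 diluted to an aqueous spray.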

Alopecurus myosuroides [8] = assay: as above; set-up: key: 0 = no damage to plant, 5 = total damage to plant; conditions: Application post-emergence, rate 1000 g/ha, evaluated after 13 days
Outline: as §2

Amaranthus retroflexus [9] = assay: as above; set-up: key: 0 = no damage to plant, 5 = total damage to plant; conditions: Application post-emergence, rate 1000 g/ha, evaluated after 13 days
Outline: as §2

Echinochloa crus-galli [10] = assay: as above; set-up: key: 0 = no damage to plant, 5 = total damage to plant; conditions: Application post-emergence, rate 1000 g/ha, evaluated after 13 days
Outline: as §2

Setaria faberi [11] = assay: as above; set-up: key: 0 = no damage to plant, 5 = total damage to plant; conditions: Application post-emergence, rate 1000 g/ha, evaluated after 13 days
Outline: as §2

zea mays [12] = assay: as above; set-up: key: 0 = no damage to plant, 5 = total damage to plant; conditions: Application post-emergence, rate 1000 g/ha, evaluated after 13 days
Outline: as §2

Structure (SMILES)	ABUTH damage score, application pre-emergence (Abutilon theophrasti [1])	ALOMY damage score, application pre-emergence (Alopecurus myosuroides [2])	AMARE damage score, application pre-emergence (Amaranthus retroflexus [3])	ECHCG damage score, application pre-emergence (Echinochloa crus-galli [4])	SETFA damage score, application pre-emergence (Setaria faberi [5])	ZEAMX damage score, application pre-emergence (zea mays [6])	ABUTH herbicidal damage score (Abutilon theophrasti [7])	ALOMY herbicidal damage score (Alopecurus myosuroides [8])	AMARE herbicidal damage score (Amaranthus retroflexus [9])	ECHCG herbicidal damage score (Echinochloa crus-galli [10])	SETFA herbicidal damage score (Setaria faberi [11])	ZEAMX herbicidal damage score (zea mays [12])
COC1=C(C)C(O)N(c2cc(C(F)(F)F)c(Br)cn2)C1=O (stereo not drawn) [AI2]	3	4	5	4	1	2	5	5	5	5	5	4
COC1=C(C)C(O)N(c2cc(C(C)(C)C)c(-c3ccc(F)nc3)nn2)C1=O (stereo not drawn) [BI30]	5	4	5	5	5	4	5	5	5	5	5	4
CC1=C(Br)C(=O)N(c2cc(C(C)(C)C#N)ncn2)C1O (stereo not drawn) [CG3]	4	4	5	4	5	3	5	5	5	5	5	3
CCC(=O)OC1C(C)=C(Cl)C(=O)N1c1cc(C(F)(F)F)c(-c2cccc(C#N)c2)cn1 (stereo not drawn) [AF94]	0	0	3	0	0	0	3	3	4	3	3	1
CCc1cc(N2C(=O)C(Cl)=C(C)C2O)ncc1Br (stereo not drawn) [AF99]	0	2	2	2	1	1	5	5	5	5	4	1
CC1=C(Cl)C(=O)N(c2cc(F)ccn2)C1O (stereo not drawn) [AF39]	4	3	4	4	3	1	5	4	5	5	4	2
CCOC(=O)c1cnc(N2C(=O)C(OC)=C(C)C2O)nc1C(F)(F)F (stereo not drawn) [DI2]	5	4	5	5	5	3	5	4	5	5	5	4
CC1=C(Cl)C(=O)N(c2cc(OC(C)C)ncn2)C1O (stereo not drawn) [CF5]	4	3	4	3	5	2	5	4	4	5	5	2
CC1=C(Cl)C(=O)N(c2cc(C(C)(C)F)ccn2)C1O (stereo not drawn) [AF31]	5	3	5	4	5	2	5	5	5	5	5	5
COc1ccc(N2C(=O)C(Cl)=C(C)C2O)nn1 (stereo not drawn) [BF8]	5	2	1	4	3	0	5	4	5	5	5	1
CC(=O)OC1C(C)=C(Cl)C(=O)N1c1cc(C(F)(F)F)ccn1 (stereo not drawn) [AF10]	5	3	5	5	4	0	5	5	5	5	5	4
CC1=C(Cl)C(=O)N(c2cc(C(F)F)ccn2)C1O (stereo not drawn) [AF34]	5	3	3	5	5	2	5	5	4	5	5	3
C=C(OCC)c1nnc(N2C(=O)C(OC)=C(C)C2O)cc1C(C)(C)F (stereo not drawn) [BI13]	5	4	5	5	5	2	5	5	5	5	5	2
CC1=C(Cl)C(=O)N(c2cc(C(C)(F)F)c(Cl)nn2)C1O (stereo not drawn) [BF12]	3	3	5	4	4	2	4	4	5	5	5	3
COC1=C(C)C(O)N(c2cc(C(C)(C)F)c(Cl)nn2)C1=O (stereo not drawn) [BI14]	3	3	5	4	5	3	5	5	5	5	5	4
CC1=C(Cl)C(=O)N(c2cc(C(C)C)c(C(=O)NC(C)(C)C)cn2)C1O (stereo not drawn) [AF103]	5	4	5	4	4	3	5	4	5	5	5	3
